≈ marks a conversion by molar mass, not a printed value.
Tests used:
[1] = Effect of initial etanidazole concentration on rate of decomposition in 0.05M citrate pH 5.5, 80° C.; assay type: physicochemical
Procedure: (§1) The k values shown in Tables 1-5 and FIG. 1 should be multipled by a factor of 2.303 to provide the actual k value.
(§2) The chemical stability of etanidazole was evaluated in solutions of varying composition stored at 80° C. Etanidazole was placed into suitable containers and sufficient buffer was added to result in a 1 mg/ml solution. A constant ionic strength of 0.3 was maintained with potassium chloride. All solutions were prepared in triplicate. The solution was divided into 2 ml sealed glass vials and was placed into cardboard storage boxes to protect the compound from light. At appropriate intervals, samples were removed from the stability chamber and cooled to room temperature. An aliquot of the sample was diluted with mobile phase containing internal standard prior to HPLC analysis. For those pH conditions where degradation was rapid, the sample aliquot was immediately quenched to neutral pH and room temperature.
(§3) Data were analyzed using methods as described by Martin et al. in "Physical Pharmacy", 3rd ed, pp 352-395 (1983).
The effect of initial etanidazole concentration on the rate of decomposition was examined in 0.05M citrate pH 5.5, at 80° C. Initial concentrations of 1, 25 and 50 mg/ml were employed.

[2] = Effect of ionic strength on rate of decomposition in 0.1M acetate, pH 5.0, 80° C.; assay type: physicochemical
Procedure: as §1, §2, §3
The impact of the ionic strength of the buffer system on the rate of decomposition was examined in 0.1M acetate, pH 5.0, at 80° C. Ionic strengths of 0.15, 0.30 and 0.60 were employed.

[3] = Crystal formation on storage at 4° C., autoclaved vs non-autoclaved (reheated samples); assay type: physicochemical
Procedure: Sixteen samples of etanidazole solutions at various pHs, which contained crystals, were heated in a 56° C. water bath for 1 hour to dissolve the crystals. After heating, the samples were divided evenly.

[4] = Effect of autoclaving on crystal formation at 4° C. over 43 days, pH 3.0, 3.5 and 4.0; assay type: physicochemical; settings: for samples that developed crystals: 50 mg/ml
Procedure: Further studies were done in which etanidazole (50 mg/ml) solutions at pH 3.0, 3.5, and 4.0 were prepared and the effect of autoclaving was evaluated. At pH 3.0, 0 of 48 autoclaved samples and 0 of 48 non-autoclaved samples developed crystals when stored at 4° C. over 43 days. At pH 3.5, 0 of 49 autoclaved samples developed crystals, and 3 of 50 non-autoclaved samples developed crystals when stored at 4° C. over 43 days. At pH 4.0, 0 of 50 autoclaved samples developed crystals when stored at 4° C. for 43 days, but 1 of 50 non-autoclaved samples developed crystals.

[5] = Effects of additives on apparent solubility / crystallization of etanidazole solutions; assay type: physicochemical; settings: for time to formation of crystalline material: excess or 150 mg/ml
Procedure: The effects of additives on the apparent solubility of etanidazole were evaluated. […] Possible effects of additives are to inhibit the crystallization of etanidazole hydrate and to solubilize etanidazole hydrate.
Solutions were mixed by rotating end-to-end for 72 hours at room temperature. […] These were placed in 4° C. storage. […] In the case of solutions containing 1% ethanolamine or 0.1% diethanolamine as additives and excess or 150 mg/ml etanidazole, crystalline material had found within 24 hours at room temperature, but the 50 mg/ml and 100 mg/ml solutions remained clear at room temperature for 72 hours. These samples were placed at 4° C. […] After 2 months at 4° C., 1 of the 3 vials remained free of crystals. The 50 mg/ml etanidazole solution with 0.1% diethanolamine remained clear for at least 2 months at 4° C.

[6] = Equilibrium solubility of etanidazole in 0.05M acetate or citrate buffers at pH 4.0 with additives; assay type: physicochemical; settings: for solubility: mean ± SD, read-out: Solubility at 4° C.
Procedure: Equilibrium solubility of etanidazole in 0.05M acetate or citrate buffers at pH 4.0 and the effects of additives were determined.

[7] = physchem

kobs, observed first-order rate constant ([1]; initial concentration 1 mg/ml): 0.00957 ± 7.37e-05 day⁻¹ | kobs, observed first-order rate constant ([1]; initial concentration 25 mg/ml): 0.0127 ± 0.000586 day⁻¹ | kobs, observed first-order rate constant ([1]; initial concentration 50 mg/ml): 0.0127 ± 0.000153 day⁻¹ | kobs, observed first-order rate constant ([2]; ionic strength 0.15, 0.1M acetate pH 5.0, 80° C.): 0.0059 ± 0.000108 day⁻¹ | kobs, observed first-order rate constant ([2]; ionic strength 0.30, 0.1M acetate pH 5.0, 80° C.): 0.00516 ± 0.000104 day⁻¹ | kobs, observed first-order rate constant ([2]; ionic strength 0.60, 0.1M acetate pH 5.0, 80° C.): 0.00518 ± 0.000306 day⁻¹ | non-autoclaved samples containing crystals again ([3]; various pHs, heated 56° C. 1 hour, then 4 days at 4° C.): 3 of 8 | samples that developed crystals ([4]; pH 3.0, autoclaved, 4° C. over 43 days): 0 of 48 | samples that developed crystals ([4]; pH 3.0, non-autoclaved, 4° C. over 43 days): 0 of 48 | samples that developed crystals ([4]; pH 3.5, autoclaved, 4° C. over 43 days): 0 of 49 | samples that developed crystals ([4]; pH 3.5, non-autoclaved, 4° C. over 43 days): 3 of 50 | samples that developed crystals ([4]; pH 4.0, autoclaved, 4° C. for 43 days): 0 of 50 | samples that developed crystals ([4]; pH 4.0, non-autoclaved, 4° C., 43 days): 1 of 50 | time solution remained clear ([5]; 0.1% diethanolamine, 50 mg/ml, 4° C.): at least 2 months | time solution remained clear ([5]; 0.1% diethanolamine, 50 mg/ml, room temperature): 72 h | vials that remained free of crystals ([5]; 0.1% diethanolamine, 100 mg/ml, 4° C., after 2 months): 1 of the 3 | vials showing crystallization ([5]; 0.1% diethanolamine, 100 mg/ml, 4° C., within 24 hours): 1 of 3 | time solution remained clear ([5]; 0.1% diethanolamine, 100 mg/ml, room temperature): 72 h | time to formation of crystalline material ([5]; 0.1% diethanolamine, room temperature): ≤ 24 h | time solution remained clear ([5]; 1% ethanolamine, 50 mg/ml, 4° C.): at least 1 month | time solution remained clear ([5]; 1% ethanolamine, 50 mg/ml, room temperature): 72 h | time to crystallization ([5]; 1% ethanolamine, 100 mg/ml, 4° C.): ≤ 24 h | time solution remained clear ([5]; 1% ethanolamine, 100 mg/ml, room temperature): 72 h | time to formation of crystalline material ([5]; 1% ethanolamine, room temperature): ≤ 24 h | time solution remained clear ([5]; 1% imidazole, 50 mg/ml, 4° C. (up to)): up to 1 month | time solution remained clear ([5]; 1% imidazole, 100 mg/ml, 4° C. (up to)): up to 1 month | time to crystal formation ([5]; 1% imidazole, 150 mg/ml, 4° C.): ≤ 2 h | appearance of solution ([5]; 1% imidazole, up to 150 mg/ml etanidazole, room temperature, 72 hours): remained clear and free of particulates | solubility ([6]; 0.05m acetate buffer, aqueous buffer, acetate 0.05M pH 4.0, no additive): 83.4 ± 26.3 mg/mL (≈ 389 mM) | solubility ([6]; 0.05m acetate buffer, acetate 0.05M pH 4.0, 0.065% Imidazole): 64.8 ± 32.1 mg/mL (≈ 303 mM) | solubility ([6]; 0.05m acetate buffer, acetate 0.05M pH 4.0, 0.13% Ethylenediamine): 54.8 ± 30.9 mg/mL (≈ 256 mM) | solubility ([6]; 0.05m citrate buffer, aqueous buffer, citrate 0.05M pH 4.0, no additive): 36.6 ± 6.4 mg/mL (≈ 171 mM) | solubility ([6]; 0.05m citrate buffer, citrate 0.05M pH 4.0, 0.065% Imidazole): 95.4 ± 3.7 mg/mL (≈ 445 mM) | solubility ([6]; 0.05m citrate buffer, citrate 0.05M pH 4.0, 0.13% Ethylenediamine): 61.5 ± 33.9 mg/mL (≈ 287 mM) | solubility ([7]; initial dissolved concentration (before crystals appeared)): > 150 mg/mL | solubility at 24 h ([7]; solubility): 59.2 to 71.7 mg/mL (≈ 276 to 335 mM) | solubility at 24 h ([7]; water, pH 6.5, water, solubility in water): 68.1 mg/mL (≈ 318 mM)
SMILES: O=C(Cn1ccnc1[N+](=O)[O-])NCCO [Etanidazole]
effect of initial concentration on degradation ([1]; 1, 25 and 50 mg/ml): not concentration dependent in this range | effect of ionic strength on degradation rate ([2]; 0.15, 0.30 and 0.60, 0.1M acetate pH 5.0, 80° C.): negligible effect on the degradation rate | crystalline particulates on storage ([3]; 50 mg/ml, aqueous buffer, 4° C.): occasionally develop crystalline particulates | effect of autoclaving on crystal formation ([4]; subsequent storage at 4° C.): autoclaving prevents the formation of crystals | solid form of excess solid ([5]; 1% imidazole and excess etanidazole, 72 hours, room temperature): appeared to have been converted to etanidazole hydrate | effect of additives on etanidazole solutions ([5]; imidazole, ethanolamine, diethanolamine, room temperature or 4° C.): these additives stabilize etanidazole solutions, inhibiting crystal formation | effect of imidazole on etanidazole solubility ([6]; citrate buffer, pH 4.0, 4° C.): Imidazole increased etanidazole solubility in citrate buffer
